Reference: patent US11339171B2, “MDM2 inhibitors” (Gan & Lee Pharmaceuticals, priority 2017, dated 2022)

Key:
MDM2 = molecular target: T1, MDM2 (Homo sapiens, UniProt Q00987); assay: Inhibition test of MDM2-P53 (GST-MDM2, Biotin-P53, Anti-GST-Tb, SA-XL665); format: binding
T1 construct: made in house
How it was run: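 Compounds, serially diluted 5-fold (twelve concentrations), were shaken for 90 min at 25° C with a mix of GST-MDM2 (4 nM final), Biotin-P53, anti-GST-Tb and SA-XL665. Buffer: 1×PBS, 0.1% BSA, 5 mM DTT, 1 mM AEBSF; signal read on a microplate reader.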

[1] = system: human osteosarcoma cell line SJSA-1; assay: Inhibition of proliferation of human osteosarcoma cell line SJSA-1 (DAPI staining, In Cell Analyzer); conditions: Homo sapiens, SJSA-1, 72 h, read-out: IC50 (nM), inhibitory activity on proliferation of human osteosarcoma cell line SJSA-1, SJSA-1, incubated 72 h

T1 sequence (Q00987 whole entry): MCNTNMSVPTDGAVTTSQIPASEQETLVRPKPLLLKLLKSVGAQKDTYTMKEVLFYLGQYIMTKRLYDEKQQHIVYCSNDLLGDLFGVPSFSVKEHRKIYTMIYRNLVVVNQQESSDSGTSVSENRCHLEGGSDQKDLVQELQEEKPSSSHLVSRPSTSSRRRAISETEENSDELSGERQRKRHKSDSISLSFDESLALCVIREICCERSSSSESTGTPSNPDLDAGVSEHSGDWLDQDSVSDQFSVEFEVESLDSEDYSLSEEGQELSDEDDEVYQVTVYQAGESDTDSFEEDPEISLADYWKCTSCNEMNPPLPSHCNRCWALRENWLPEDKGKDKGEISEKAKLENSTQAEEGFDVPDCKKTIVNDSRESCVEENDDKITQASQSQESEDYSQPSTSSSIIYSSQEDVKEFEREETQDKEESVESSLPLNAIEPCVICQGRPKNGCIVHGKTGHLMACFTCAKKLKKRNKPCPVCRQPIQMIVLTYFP

| SMILES | IC50 (MDM2) [nM] | IC50 [1] [nM] |
| --- | --- | --- |
| COc1ccc(N2C(=O)c3nc(-c4ccccc4OC)n(C(C)C)c3[C@@]23C(=O)Nc2cc(Cl)ccc23)cc1Cl [Example S-63, (S)-6-chloro-5′-(3-chloro-4-methoxyphenyl)-3′-isopropyl-2′-(2-methoxyphenyl)-3′H-spiro[dihydroindole-3,4′-pyrrolo[3,4-d]imidazole]-2,6′(5′H)-dione] | 1.16 | 77.6 |
| COc1ccc(-c2nc3c(n2C(C)C)[C@@]2(C(=O)Nc4cc(Cl)ccc42)N(c2cc(Cl)ccc2C)C3=O)cc1 [Example S-64, (S)-6-chloro-5′-(5-chloro-2-methylphenyl)-3′-isopropyl-2′-(4-methoxyphenyl)-3′H-spiro[dihydroindole-3,4′-pyrrolo[3,4-d]imidazole]-2,6′(5′H)-dione] | 11.8 | 726 |
| COc1cc(N)ccc1-c1nc2c(n1C(C)C)[C@@]1(C(=O)Nc3cc(Cl)ccc31)N(c1cc(Cl)ccc1F)C2=O [Example S-66, (S)-2′-(4-amino-2-methoxyphenyl)-6-chloro-5′-(5-chloro-2-fluorophenyl)-3′-isopropyl-3′H-spiro[dihydroindole-3,4′-pyrrolo[3,4-d]imidazole]-2,6′(5′H)-dione] | 1.5 | 39.6 |
| COc1cc(N)ccc1-c1nc2c(n1C(C)C)[C@@]1(C(=O)Nc3cc(Cl)ccc31)N(c1cc(F)cc(Cl)c1)C2=O [Example S-67, (S)-2′-(4-amino-2-methoxyphenyl)-6-chloro-5′-(3-chloro-5-fluorophenyl)-3′-isopropyl-3′H-spiro[dihydroindole-3,4′-pyrrolo[3,4-d]imidazole]-2,6′(5′H)-dione] | 1.22 | 20.8 |
| COc1cc(C(=O)N(C)C)ccc1-c1nc2c(n1C(C)C)[C@@]1(C(=O)Nc3cc(Cl)ccc31)N(c1cc(Cl)ccc1C)C2=O [Example S-68, (S)-4-(6-chloro-5′-(5-chloro-2-methylphenyl)-3′-isopropyl-2,6′-dioxo-5′,6′-dihydro-3′H-spiro[dihydroindole-3,4′-pyrrolo[3,4-d]imidazole]-2′-yl)-3-methoxy-N,N-dimethylbenzamide] | 2.32 | 1700 |
| COc1ccc(CC(=O)N(C)C)cc1-c1nc2c(n1C(C)C)[C@@]1(C(=O)Nc3cc(Cl)ccc31)N(c1cc(Cl)ccc1C)C2=O [Example S-70, (S)-2-(3-(6-chloro-5′-(5-chloro-2-methylphenyl)-3′-isopropyl-2,6′-dioxo-5′,6′-dihydro-3′H-spiro[dihydroindole-3,4′-pyrrolo[3,4-d]imidazole]-2′-yl)-4-methoxyphenyl)-N,N-dimethylacetamide] | 0.94 | 73.6 |
| COc1ccc(N2C(=O)c3nc(-c4ccc(N)cc4OC)n(C(C)C)c3[C@@]23C(=O)Nc2cc(Cl)ccc23)cc1Cl [Example S-71, (S)-2′-(4-amino-2-methoxyphenyl)-6-chloro-5′-(3-chloro-4-methoxyphenyl)-3′-isopropyl-3′H-spiro[dihydroindole-3,4′-pyrrolo[3,4-d]imidazole]-2,6′(5′H)-dione] | 2.96 | 292 |
| COc1cc(N)ccc1-c1nc2c(n1C(C)C)[C@@]1(C(=O)Nc3cc(Cl)ccc31)N(c1ccc(F)c(Cl)c1)C2=O [Example S-73, (S)-2′-(4-amino-2-methoxyphenyl)-6-chloro-5′-(3-chloro-4-fluorophenyl)-3′-isopropyl-3′H-spiro[dihydroindole-3,4′-pyrrolo[3,4-d]imidazole]-2,6′(5′H)-dione] | 1.1 | 251 |
| COc1cc(N)c(C)cc1-c1nc2c(n1C(C)C)[C@@]1(C(=O)Nc3cc(Cl)ccc31)N(c1cc(Cl)ccc1C)C2=O [Example S-74, (S)-2′-(4-amino-2-methoxy-5-methylphenyl)-6-chloro-5′-(5-chloro-2-methylphenyl)-3′-isopropyl-3′H-spiro[dihydroindole-3,4′-pyrrolo[3,4-d]imidazole]-2,6′(5′H)-dione] | 0.98 | 7.85 |
